Results from patent publication US10532082B2, “SOCS1-derived peptide for use in chronic complications of diabetes” (Fundació Hospital Universitari Vall d'Hebron-Institut de …, priority 2014, dated 2020).
Where no end group is shown, it is not given here. [ ]: non-standard residue; d: D form. lysine‑palmitate = lysine-palmitate bound at the N-terminal end; pY = N[C@@H](Cc1ccc(OP(=O)(O)O)cc1)C(=O)O

Legend:
RAW264.7 macrophages [1] = test: Cytokine-induced CCL2 production in macrophages (ELISA); type: cell-based, murine; settings: pre-incubation with peptide, IFNγ and IL-6
Method: (§1) RAW264.7 macrophages and vascular smooth muscle cells (VSMC) cultured in a medium with 10% fetal bovine serum were used. The cells were synchronized (24 hours without serum), pre-incubated for 90 minutes with different peptide concentrations (miS1 or the control thereof, 50-150 μg/mL) and stimulated with cytokines (IFNγ […]). STAT activation was analyzed by means of Western blot for phosphorylated STAT1/STAT3 isoforms. JAK/STAT pathway-dependent chemokine (CCL2) expression was determined by means of ELISA. Cell viability was analyzed by MTT colorimetric assay and macrophage migration was analyzed by chemotaxis assay.

RAW264.7 macrophages [2] = test: Macrophage migration chemotaxis assay; type: cell-based, murine; settings: chemotaxis assays
Method: as §1

[3] = tested on: streptozotocin diabetic apoE-deficient mice; test: Metabolic and renal data in mice with type 1 diabetes, intraperitoneal treatment; type: in vivo; settings: STZ apoE mice, 65 μg/day i.p. every 2 days, 8 weeks
Method: (§2) Apolipoprotein E (apoE)-deficient male mice of 8 weeks of age were made diabetic through streptozotocin injection (125 mg/kg weight in 10 mM citrate, pH 4.5, two consecutive days). After 2 weeks, animals with glycemia greater than 350 mg/dL were randomly distributed in two groups (n=9 animals per group): treated animals (miS1 peptide: 65 μg/day, 200 μL, intraperitoneally, every 2 days for 8 weeks) and controls (vehicle). The weight and glycemia (colorimetric assay) were controlled throughout the study period.
(§3) At the end of the study, the anesthetized animals were perfused with saline and sacrificed, processing the tissues immediately. In renal cortex (paraffin sections, 5 μm) the glomerular and tubulointerstitial morphology was studied by means of PAS and Masson trichrome staining and the lesions were evaluated in a double-blind and semi-quantitative manner in a scale of 0-3. Renal fibrosis was determined by means of Picro-Sirius red staining and the infiltrating inflammatory cells (F4/80+ macrophages and CD3+ T-lymphocytes) by immunohistochemistry. In the aorta, the root/arch zone (serial cryosections of 8 μm from the valves to an extension of 1000 μm) was stained with Oil-red-O/hematoxylin and the area of the atherosclerotic lesion was quantified (Metamorph program). Plaque stability was assessed by collagen fiber staining with Picro-Sirius red and α-actin immunofluorescence. The inflammatory component was determined by means of immunohistochemistry for monocyte/macrophages (Moma2). The Image Pro-Plus program was used for quantifying positive stainings. The biochemical parameters in serum (glycated hemoglobin, cholesterol and creatinine) and in urine (albumin and creatinine) were determined by means of conventional commercial kits.

diabetic mice (db/db) = test: Glial activation by GFAP immunofluorescence in retina, topical eye drops; type: in vivo
Method: 8-week old diabetic mice (db/db) received the miS1 peptide in the form of eye drops (5 μL drops in each eye; 10 mg/mL; twice a day for 15 days; n=7 mice). Diabetic mice treated with the non-functional peptide Mut (n=7), treated with vehicle and non-diabetic mice (db/+) were used as controls. The eye drops were directly administered on the upper surface of the cornea of each eye using a micropipette. The weight and glycemia (colorimetric assay) were controlled throughout the study period. On day 15, the drop with the miS1 peptide or vehicle was administered about two hours before autopsy. […]
Glial activation was evaluated by means of GFAP (Glial fibrillar acidic protein) immunofluorescence following the methodology described in other studies (Bogdanov et al. PLoS One. 2014; 9:e97302). […] The images of diabetic and control samples were taken with identical parameters and the topographic distribution of the GFAP labelling was analyzed in a scale of 0 to 5 (Anderson et al. Clin Ophthalmol 2008; 2(4):801-16). […] Apoptosis was determined by means of TUNEL (Terminal Transferase dUTP Nick-EndLabeling; fluorescence kit) immunohistochemistry using the previously described method (Bogdanov et al. PLoS One. 2014; 9:e97302) and subsequent quantification under a fluorescence microscope. […]

[4] = tested on: streptozotocin diabetic apoE-deficient mice; test: Atheromatous plaque size and composition in aorta of diabetic mice; type: in vivo; settings: STZ apoE mice, i.p.
Method: as §2, §3

How did the “reduction of cytokine-induced CCL2 production” value (RAW264.7 macrophages [1]) turn out when “miS1: SEQ ID NO 1 DTHFRTFRSHSDYRRI, kinase inhibitory region of murine SOCS1, bound to lysine-palmitate at the N-terminal end, tyrosine phosphorylated ({lysine‑palmitate}-DTHFRTFRSHSD[pY]RRI)” was run?
The value was 30-40%.

And the macrophage migration (RAW264.7 macrophages [2])?
Its macrophage migration is “anti-migratory effect”.

What about the “weight loss caused by chronic diabetes” value [3] of the same substance?
The value was “less pronounced”.

What about the ALT ([3]; end of study) of the same substance?
The ALT was 97 ± 17 U/L.

What about the AST ([3]; end of study) of the same substance?
The AST was 176 ± 20 U/L.

And the Blood glucose ([3]; end of study)?
Its Blood glucose is 549 ± 29 mg/dL.

And the GHbA1c ([3]; end of study)?
Its GHbA1c is 503 ± 76 µg/mL.

And the HDL cholesterol ([3]; end of study)?
Its HDL cholesterol is 11 ± 1 mg/dL.

What about the LDL cholesterol ([3]; end of study) of the same substance?
Its LDL cholesterol is 597 ± 61 mg/dL.

And the Total cholesterol ([3]; end of study)?
Its Total cholesterol is 611 ± 59 mg/dL.

What about the Triglycerides ([3]; end of study) of the same substance?
Its Triglycerides is 89 ± 23 mg/dL.

What about the Weight ([3]; end of study) of the same substance?
Its Weight is 21.9 ± 0.6 g.

What about the Urine albumin-creatinine ratio ([3]; p < 0.01 vs control) of the same substance?
Its Urine albumin-creatinine ratio is 16.2 ± 61.1 µg/µmol.

What about the Serum creatinine ([3]; p < 0.02 vs control) of the same substance?
Its Serum creatinine is 0.24 ± 0.04 mg/dL.

What about the Kidney-body mass ratio ([3]; p < 0.05 vs control) of the same substance?
Its Kidney-body mass ratio is 16.4 ± 1.3 mg/g.

And the “decrease in albumin levels (renal function)” value ([3]; vs vehicle)?
The value was 28%.

And the GFAP score (diabetic mice (db/db); eye drops 50 μg in 5 μL/eye twice a day, 15 days, scale 0 to 5)?
The GFAP score was 3.

What about the “reduction of GFAP glial protein staining” value (diabetic mice (db/db); eye drops 15 days, compared with groups that received Mut peptide or vehicle) of the same substance?
Its value is “about 80%”.

What about the “reduction in the size and extension of atheromatous lesions” value ([4]; Oil-red-O/hematoxylin, compared with the control group that received the vehicle) of the same substance?
The value was 50%.

And the “collagen and vascular cells content of plaques” value ([4]; plaque composition)?
Its value is “higher”.

And the “number of macrophages in the atherosclerotic lesions” value ([4]; plaque composition)?
The value was “reduction”.
